Results: patent publication US11110195B2, “Esculentin 1a derivatives and uses thereof” (University of Houston System, priority 2013, dated 2021)
Where two headings read alike, the source gives them in different places. Non-standard residues stand in square brackets, D forms with d. Residues, ends and D or L forms follow the SMILES beside them.

Key:
[1] = MTT viability assay, A549 cells; conditions: human
Experimental: (§1) Cell viability is expressed as percentage with respect to the control (cells not treated with the peptides). Data points represent the mean of triplicate samples ±SEM. […] The levels of statistical significance between the two peptides are indicated as follows: **p<0.01, ***p<0.001.
(§2) Cells were plated in wells of a microtiter plate, at 4×10^4 cells/well in DMEM supplemented with 2 mM glutamine and 2% FBS (for A549 cells) or DMEM containing 2 mM glutamine, non-essential amino acids (NEAA), sodium pyruvate and 2% FBS (for Raw 264.7 macrophages). After overnight incubation at 37° C. in a 5% CO2 atmosphere, the medium was replaced with 100 μl fresh serum-free medium supplemented with the peptides at different concentrations. After 24 h of peptide treatment, cell viability was determined by a MTT assay.

Raw 264.7 macrophages = assay: MTT viability assay, Raw 264.7 macrophages; conditions: 256 μM (highest concentration), 24 h
Experimental: as §1, §2

[2] = test system: A549 lung epithelial cells; assay: Wound healing assay, A549 lung epithelial cells; format: cell-based, human; conditions: A549 monolayer
Experimental: The percentage of cell-covered area at each time point is reported on the y-axis. Control (Ctrl) represents cells not treated with the peptides. All data are the mean of at least three independent experiments ±SEM. […] Both peptides were able to stimulate the closure of the gap produced in the monolayer of A549 cells, with the optimal concentration allowing the almost complete coverage of the wound field equal to 10 μM (for the wild type peptide, FIG. 13A) or 4 μM (for the diastereomer, FIG. 13B) within approximately 24 hours or 20 hours, respectively.
As shown in FIGS. 13A-13B, Esc-1a(1-21)NH2 and its diastereomer both stimulated wound closure although at concentrations much higher than were required to induce a similar effect in human corneal epithelial cells. This may reflect cell specific differences.

in vitro = conditions: for Peptide Amount (%): 24 h, 37° C.; for remaining at 5 h, 0.575 mM / remaining at 24 h, 0.575 mM: human
Experimental: A total of 125 μl of a 0.92 mM solution of each peptide was incubated at 37° C. with 20 μl and 60 μl human serum. Samples were collected after 5 h and 24 h of incubation, precipitated with 200 μl methanol, and centrifuged for 2 min at 10,000 g.
The crude solution was then analyzed by high-performance liquid chromatography (HPLC) and mass spectrometry. HPLC was performed with a Vydac C18 column, and the crude solution was diluted 5 times with 0.1% trifluoroacetic acid before injection and monitored at 280 nm.

[3] = test system: P. aeruginosa ATCC 27853 biofilm; conditions: 2 hours treatment
Experimental: Data points are the mean±SEM of three independent experiments. The levels of statistically significant differences between the two peptides are indicated as follows *P<0.05, **P<0.01, ***P<0.001
The reference strain and the clinical isolates were grown at 37° C. in Luria-Bertani broth (LB) to mid-log phase (optical density of 0.8 at 590 nm). With the help of tweezers, silicone hydrogel narafilcon A soft CL (1-Day ACUVUE TruEye) were removed from the manufacturer's containers, and washed thrice in phosphate buffered saline (PBS). The lenses were then immersed into wells of a 24-multiwell plate, each well containing 1 mL of bacterial inoculum in 1/10 LB at a concentration of 5×10^4 colony-forming units (CFU)/mL. Noteworthy, the number of bacteria isolated from CL storage cases has been reported to range from 1 to 6×10^4 CFU/case (2, 10). Therefore, in order to reproduce a more realistic level of bacteria to which CLs can be exposed, an inoculum size of 5×10^4 CFU/mL was used for biofilm formation.
The plate was then incubated in a humidified incubator at 37° C. at 125 rpm to allow biofilm formation on the surface of both lens sides. After 20 hours of incubation, each lens was washed thrice with PBS to remove any non-adherent planktonic cells.
The lenses were then transferred into wells of a new 24-multiwell plate, each well containing serial dilutions of Esc-1a(1-21)NH2 and Esc-1a(1-21)-1cNH2 in PBS. For […] controls, the lenses were immersed in sterile PBS. The new plate was then incubated at 37° C. for 2 hours with gentle shaking (125 rpm). After peptide treatment, each lens was washed thrice in PBS and transferred into wells of another 24-multiwell plate, each well containing 350 μL of 0.5 mg/mL of 3-(4,5-dimethylthiazol-2-yl)-2,5-diphenyltetrazolium bromide (MTT, from Sigma Aldrich, Milan, Italy) in Hank's solution (136 mM NaCl; 0.34 mM Na2HPO4; 0.44 mMKH2PO4; 5.4 mM KCl; 4.1 mM NaHCO3 pH 7.2, supplemented with 5.5 mM D-glucose) as previously reported (8). The killing of biofilms was determined as a function of the inhibition of MTT reduction to insoluble formazan crystals by bacterial reductases. The plate was incubated again for 2 hours (125 rpm) at 37° C. Formazan crystals were solubilized by the addition of acidified isopropanol. During overnight incubation at room temperature the resulting purple color was absorbed by the lens. Afterward, each lens was soaked in absolute ethanol (500 μL in each well) to decolor it. Aliquots of 100 μL were finally transferred to the wells of a 96-multiwell plate and absorbance was measured at 590 nm using a microplate reader (Infine M 200, Tecan). Untreated bacterial cells in PBS were the control. Percentage of killing was calculated according to the formula: [1−(Abs of treated samples−Abs of blank/Abs of control samples-Abs of blank)][…], where the blank was the solvent PBS.

P. aeruginosa ATCC 27853 = conditions: soluble free form, 1 μM, within 20 minutes in PBS
HaCaT keratinocytes = test system: HaCaT keratinocytes
Excerpt: Cell viability is expressed as percentage with respect to the control (cells not treated with the peptide). Data points represent the mean of triplicate samples ±SEM.

HaCaT cells = assay: Wound healing assay, HaCaT cells; format: cell-based, human; conditions: HaCaT monolayer
Experimental: The percentage of cell-covered area at each time point is reported on the y-axis. Control (Ctrl) represents cells not treated with the peptide. All data are the mean of at least three independent experiments ±SEM. […] The optimal concentration allowing gap closure was 0.25 μM.
The experimental procedure is similar to that described in Example 6 with the following two differences: (i) 40,000 cells suspended in DMEM supplemented with 4 mM glutamine and 10% FBS were seeded on each side of the ibidi culture inserts instead of 70,000 cells in KGM-2g as for corneal epithelial cells; (ii) serum-free medium was used in the wound healing assay instead of medium supplemented with 5% FBS as for corneal epithelial cells. […] Overall, the experiments indicate that Esc-1a(1-21)NH2 can stimulate wound closure in different types of mammalian cells but this is with a different kinetic or optimal concentration and thus a stereospecific mechanism involving a direct/indirect activation of different signalling transduction cascades (depending on the selected cell type) likely subtends such events.

[4] = test system: human telomerase immortalized corneal epithelial cells; assay: in vitro
Experimental: Human corneal epithelial cells were incubated with varying concentrations of Esc-1a(1-21)NH2 for 24 hrs then cytotoxicity determined by MTT assay. Data are the mean of 3 independent experiments.
To determine the toxicity of Esc-1a(1-21)NH2 to human telomerase immortalized corneal epithelial cells, the following experiment was performed. The MTT (3-(4,5-Dimethylthiazole-2-yl)-2,5-diphenyltetrazolium bromide) assay measures the activity of enzymes that reduce the tetrazolium blue dye to a formazan salt. Mitochondrial reductase enzymes will reduce MTT to formazan, which can be visualized by colorimetric reaction the absorbance of which can be quantified.
MTT assay was performed on human telomerase immortalized corneal epithelial cells treated with different concentrations of the peptide for 24 hrs. The test was performed in triplicate or quadruplicate wells with concentrations of the peptide of up to 100 μM using the following protocol. On day 1, plated the telomerase immortalized epithelial cells at 10,000 cells/well in a 96 well plate. Incubated the plate at 37° C. for […] to allow the cells to attach to the plate and spread. On day 2, incubated the cells in serum free media for at least 6 hrs prior to peptide treatment. On day 3, stimulated the cells with 100, 50, 25, 10, 5, 1, 0.5 and 0.1 μM Esc-1a(1-21)NH2 in quadruplicate for 24 hrs. On day 4, added 50 μl of 0.02% Benzalkonium chloride into 4 wells as a positive control for 15 minutes. Added 50 μl of serum free media into all the other wells (total volume 100 μl). Added 10 μl of MTT stock solution into each of the well. Incubated at 37° C. for 3 hours. At the end of 3 hours purple crystals were visible under the microscope. Added 100 μl of stop solution into each well using a multichannel pipette. Pipetted up and down to dissolve all the crystals. Gently popped the bubbles using a 10 μl tip. Read plate using plate reader at 590 nm abs and 635 nm reference. Subtracted reference OD value (635) from 590 OD value and plotted graph.

CC[C@H](C)[C@H](NC(=O)CN)C(=O)N[C@@H](Cc1ccccc1)C(=O)N[C@@H](CO)C(=O)N[C@@H](CCCCN)C(=O)N[C@@H](CC(C)C)C(=O)N[C@@H](C)C(=O)NCC(=O)N[C@@H](CCCCN)C(=O)N[C@@H](CCCCN)C(=O)N[C@H](C(=O)N[C@@H](CCCCN)C(=O)N[C@@H](CC(N)=O)C(=O)N[C@H](CC(C)C)C(=O)N[C@@H](CC(C)C)C(=O)N[C@H](C(=O)N[C@H](CO)C(=O)NCC(=O)N[C@@H](CC(C)C)C(=O)N[C@@H](CCCCN)C(=O)NCC(N)=O)[C@@H](C)CC)[C@@H](C)CC [Esc-1a(1-21)-1cNH2] (H-GIFSKLAGKKIKN[dL]LI[dS]GLKG-NH2; N-terminus assumed)
CC50 at 24 h [1]: > 256 µM | decrease in the percentage of metabolically-active cells (Raw 264.7 macrophages): ~20% | optimal concentration allowing almost complete coverage of the wound field [2]: 4 µM | time to almost complete coverage of the wound field ([2]; at optimal concentration): ~20 h | Peptide Amount (%) (in vitro; 10% human fresh serum): 45.61% | Peptide Amount (%) (in vitro; 30% human fresh serum): 25.46% | remaining at 5 h, 0.575 mM (in vitro; 10% human fresh serum): 63.3% | remaining at 24 h, 0.575 mM (in vitro; 10% human fresh serum): 45.6% | remaining at 5 h, 0.575 mM (in vitro; 30% human fresh serum): 30.1% | remaining at 24 h, 0.575 mM (in vitro; 30% human fresh serum): 25.5% | biofilm killing ([3]; 4 μM): ~35% | biofilm death ([3]; 16 μM): ~80% | biofilm killing ([3]; 32 μM): ~90% | killing (P. aeruginosa ATCC 27853): ~90%

CC[C@@H](C)[C@@H](NC(=O)CN)C(=O)N[C@H](Cc1ccccc1)C(=O)N[C@H](CO)C(=O)N[C@H](CCCCN)C(=O)N[C@H](CC(C)C)C(=O)N[C@H](C)C(=O)NCC(=O)N[C@H](CCCCN)C(=O)N[C@H](CCCCN)C(=O)N[C@@H](C(=O)N[C@H](CCCCN)C(=O)N[C@H](CC(N)=O)C(=O)N[C@H](CC(C)C)C(=O)N[C@H](CC(C)C)C(=O)N[C@@H](C(=O)N[C@H](CO)C(=O)NCC(=O)N[C@H](CC(C)C)C(=O)N[C@H](CCCCN)C(=O)NCC(N)=O)[C@H](C)CC)[C@H](C)CC [all D Esc-1a(1-21)NH2] (H-G[dI][dF][dS][dK][dL][dA]G[dK][dK][dI][dK][dN][dL][dL][dI][dS]G[dL][dK]G-NH2; N-terminus assumed)
reduction in the number of metabolically-active keratinocytes (HaCaT keratinocytes; 2 h treatment, 1-64 μM): did not show any remarkable reduction | toxicity to HaCaT keratinocytes (HaCaT keratinocytes; higher concentration tested, 24 h): did not show toxicity | cell-covered area vs untreated control cells (HaCaT cells): no statistically significant difference

benzalkonium chloride [BAC, reference compound]
cytotoxicity ([4]; positive control (FIG. 4)): ~100% | viability ([4]; positive control, 0.02% for 15 minutes): 6.2%
